What was measured:
[1] = system: S. cerevisiae H1246 expressing WS2; assay: Heterologous expression of WS2 in TAG deficient yeast, FAEE by TLC; assay type: cell-based, Saccharomyces cerevisiae; details: H1246 given both ethanol and oleic acid as substrates
Experimental: Fifteen milliliters of grown yeast were centrifuged for 10 minutes at 4000 rpm. The cell pellets were vortexed vigorously with glass beads for 5 minutes to lyse open cells and extracted with 1 mL chloroform of which 5 μL were spotted on TLC with Whatman normal phase silica gel 60 plates and developed using hexane:diethyl ether:acetic acid (90:10:1, v/v/v). TLC plates were stained with either iodine vapor.

[2] = system: S. cerevisiae YGL035c expressing WS2; assay: Heterologous expression of WS2 in MIG1 deletion yeast, ethyloleate by TLC and GC; assay type: cell-based, Saccharomyces cerevisiae
Experimental: S. cerevisiae YGL035c BY4742 with following genotype: MATalpha his3Δ1 leu2Δ0 lys2Δ0 ura3Δ0 ΔMIG1 was purchased from ATCC ([…]; Manassas, Va.). S. cerevisiae YGL035c was cultivated for electro transformation in YPG (Yeast peptone glucose) medium at 30° C. overnight. 100 μL of washed yeast cell pellets were electroporated with 5 μL of pESC_URA for the negative control or 5 μL of pESC URA WS2, which expresses acyltransferase gene constructs. Cells were rescued with 800 μL 1M sorbitol and 200 μL were plated onto synthetic minimal media drop out agar plates without uracil. Colonies were seen after 2 days and were picked and grown in nitrogen base medium (Difco Detroit Mich.) […], and 0.13% (wt/vol), synthetic dropout medium supplement without uracil, and 2% (wt/vol) glucose. One hundred milliliter yeast cultures were grown aerobically overnight at 30° C. in 250 ml flask with synthetic dropout uracil growth media with glucose. Cells were spun down and resuspended in 200 mL of fresh dropout media with 2% glucose, 0.1% potassium oleate, and 2% galactose to induce expression of heterologous protein. Cultures were capped with a rubber stopper with syringe needle piercing the top of the rubber stopper to allow gas (carbon dioxide) to exit during the 72 hours anaerobic growth. Cells were harvested and resuspended in 1 mL of chloroform and approximately 0.5 grams of glass beads. Total lipid composition of yeast was determined from cells harvested from a 200-ml liquid culture, broken with glass-beads in a 50-mL Falcon tube, and extracted into 1.5 mL of chloroform.
Cells were vortexed vigorously for 5 minutes to lyse open cells and chloroform was removed and evaporated under nitrogen gas. 15 mL sample of 250 mL cultures were centrifuged and lysed with glass beads, the yeast lysates were resuspended in 1 ml chloroform for GC/MS analysis and TLC analysis.
Fifteen milliliters of grown yeast were centrifuged for 10 minutes at 4000 rpm. […]
For quantification of ethyloleate, chloroform extractions of three known amounts (1.5 nmoles, 15 nmoles, and 30 nmoles) of ethyloleate standard were injected into the gas chromatograph (GC) in which the peak areas were integrated to calculate the amounts of ethyloleate produced by YGL035c expressing WS2. Three microliters of chloroform extracts from the samples were injected and analyzed on a gas chromatography electron impact mass spectrometry that were performed with a Hewlett Packard 6890 series gas chromatograph connected to an HP 5973 mass spectrometer. […]

Acs2/WS2 = assay: Acs2/WS2-coupled assay with oleic acid and ethanol (TLC); assay type: biochemical, Marinobacter hydrocarbonoclasticus; details: oleic acid and ethanol as substrates, each 250 μM, 37° C. overnight
Experimental: In vitro coupled assays/TLC analysis—Stock solutions of various fatty acid substrates (oleic acid) were prepared in 50 mM Tris-HCl buffer (pH 8) containing 1% gum arabic, […], 0.1% taurocholate, and 100 mM of fatty acid. WS/Acs enzyme coupled assays were carried out in 500 μL reactions containing 50 mM Tris-HCl buffer pH 8.0, 12.5 μL of fatty acid stock solution and addition of ethyl alcohol solution (final concentrations of each substrate 250 μM), 10 mM MgCl2, 10 mM CoASH, 10 mM ATP, 5 mM TCEP, 0.1 U of inorganic pyrophosphatase, 0.25 μg of Acs2 (acyl CoA synthetase) and 0.5 μg of WS2 (wax ester synthase). Assays were incubated at 37° C. overnight before thin-layer chromatography (TLC) analysis of reaction products. In vitro WS assay samples were extracted with 500 μL of chloroform:methanol (1:1 [vol/vol]), and chloroform:methanol extracts were analyzed by TLC with Whatman normal phase silica gel 60 plates where products were separated using hexane:diethyl ether:acetic acid (90:10:1 [vol/vol/vol]). Products were compared to an ethyloleate standard. Resolved TLC plates were stained with iodine vapor.

Row | Structure (SMILES) | Ethyloleate production in vivo (TLC) [1] | Ethyloleate formed from the oleate added ([2]; 250 mL culture, 889 μmoles oleate added) | Ethyloleate production in vivo (TLC) ([2]; Mig1 deletion yeast expressing pESC-URA-WS2, galactose induced, grown anaerobically with 0.1% potassium oleate) | Ethyloleate production in vivo (TLC) ([2]; potassium oleate not supplemented) | Ethyloleate formation in Acs2/WS2-coupled assay (TLC) (Acs2/WS2) | % Efficiency oleate to ethyloleate ([2]; 0.1% (wt/vol) oleate in 250 mL (889 μmoles)) [%]
1 | CCCCCCCC/C=C\CCCCCCCC(=O)OCC [ethyloleate] | produced in vivo | approximately 50 μmol | shown in vivo | No ethyloleate product was seen | – | –
2 | CCCCCCCC/C=C\CCCCCCCC(=O)O [oleic acid] | – | – | – | – | ethyloleate ester product was synthesized in vitro | 5.5

Reference: patent US7897369B2, “Isoprenoid wax ester synthases, isoprenoid acyl CoA-synthetases, and uses thereof” (Regents of the University of Minnesota, priority 2007, dated 2011)
